Experimental data published in patent US10576145B2, “CD200 inhibitors and methods of use thereof” (REGENTS OF THE UNIVERSITY OF MINNESOTA, priority 2014, dated 2020).
Entries after “also recorded” stand apart in the source; their conditions may differ.

Tests used:
EMT6 tumor bearing mice = experiment: EMT6 breast carcinoma model: tumor lysate + CpG +/- competitive inhibitor, survival; format: in vivo, BALB/c mice
Procedure: FIG. 6. Percent survival of mice inoculated with 1×10^6 EMT6 cells. To determine if our competitive inhibitors worked in other tumor models, mice were inoculated in the fat pad with 1×10^6 EMT6 cells. Specifically, mice were vaccinated with 65 μg of EMT6 tumor lysates+50 μg of adjuvant CpG and 50 μg of different completive inhibitors (6059, 4004, 4013 and 6061) and monitored for survival. Saline and tumor lysate+adjuvant CpG were used as controls.
FIGS. 19A-19B. Select CD200 antagonists enhance survival. (FIG. 19A) EMT6 tumor bearing mice were vaccinated with tumor lysate, CpG+/−CD200 antagonist 4004, 4013 or 6059. […] Log-rank analysis was used for survival.
(§1) Tumors were implanted into female C57BL/6 mice (6-8 wk old) (Jackson Laboratory) and maintained in a pathogen-free facility according to the guidelines of the University of Minnesota Animal Care and Use Committee. The GL261 orthotopic transplant model was established in C57BL/6 (B6) mice by inoculation with 15,000 GL261-Luc^+ cells in 1 μl of saline. Tumors were implanted stereotactically into the right striatum; coordinates were 2.5 mm lateral, 0.5 mm anterior of bregma, and 3 mm deep from the cortical surface of the brain^19. Tumor burden was determined by bioluminescent imaging. Light emitted from the tumors was quantified using Living Image software (Xenogen) and expressed as photons per second per centimeter squared per steradian (p/s/cm^2/sr). GL261 cells for tumor lysate vaccines were cultured in neural stem cell media consisting of DMEM/F12 (1:1) with L-glutamine, sodium bicarbonate, penicillin/streptomycin (100 U/ml), B27 and N2 supplements (Life Technologies), and 0.1 mg/ml Normocin (Invivogen). Cultures were maintained at 5% 02 and supplemented with 20 ng/ml EGF and FGF semiweekly (R&D Systems, Minneapolis, Minn.). […] Mice were euthanized when tumors reached 1000 mm^3. […] Tumor cells used to establish both models were cultured in DMEM containing 10% FBS, penicillin/streptomycin (100 U/ml), and 0.1 mg/ml Normocin (Invivogen) in atmospheric oxygen.

GL261 tumor bearing mice = experiment: GL261 glioma model: tumor lysate vaccine +/- antagonist, tumor growth by imaging and survival; format: in vivo, C57BL/6 mice; details: for Tumor growth: GL261, tumor lysate vaccine + antagonist vs tumor lysate alone or saline, weekly imaging; for Survival: GL261 glioma model, tumor lysate vaccine + antagonist
Procedure: FIGS. 4A-4C. FIG. 4A) GL261 tumor bearing mice were inoculated with 50 μg of antagonist 6059 one day prior to vaccination with tumor lysate (65 μg)+/−the antagonist 6059 (50 μg). FIG. 4B) Mice were imaged weekly for tumor growth. The following groups were studied: saline (1), tumor lysate (2), and tumor lysate+6059 (3). FIG. 4C) Percent survival post inoculation for saline (1), tumor lysate (2), and tumor lysate+6059 (3) groups.
FIGS. 5A-5B. FIG. 5A) GL261 tumor bearing mice were inoculated with 10 μg of 6059 on day 2 into the tumor site then with 50 μg of antagonist 6059 one day prior to vaccination with tumor lysate (65 μg)+the antagonist 6059 (50 μg). FIG. 5B) Mice were imaged weekly for tumor growth. The following groups were studied: saline (1), tumor lysate+6059 (2), and CNS+tumor lysate+6059 (3) groups.
Whether vaccination with CD200R antagonists could enhance the survival of tumor-bearing mice was also studied. […] GL261 tumor bearing mice were vaccinated weekly with saline, tumor lysates (TL) or tumor lysates+an antagonist (4004, 4013, 6059).
Tumor-bearing mice were inoculated in the brain with 10 μg of the inhibitor 6059 at the same coordinates at which the tumor was injected two days previously. This was followed by weekly injections of tumor lysate+inhibitor (FIGS. 5A-5B).
as §1
Tumor lysates were prepared by dissociating tumor cells with non-enzymatic dissociation solution (Sigma). Cells were then washed 3 times with PBS, re-suspended in 500 μL PBS, and frozen overnight at −80° C. Cells were then lysed by five freeze/thaw cycles of freezing in liquid nitrogen and thawing in a 55° C. water bath. Cell debris was pelleted by centrifugation at 14,000 RCF, and the protein concentration of the supernatant was determined using a Bradford assay. Lysates were stored at −80° C. until use. Each vaccine was prepared on the day of vaccination and consisted of 65 μg of protein tumor lysate and 10 μg Poly:ICLC (Oncovir, Inc.), with or without 50 μg of the 6059 peptide antagonist, in a final volume of 100 μL injected intradermally in the back of the neck. For survival studies, vaccines were administered weekly starting three days post-tumor implantation for a total of 6 doses. In T cell priming experiments, CD8 T-cell priming experiments, animals were vaccinated intradermally on four consecutive days with 100 μg Ovalbumin (OVA) and 10 μg Poly:ICLC, and once more on day eleven^19.

splenocytes = experiment: Splenocytes pulsed with OVA + antagonist, OT-1 T cells added, cytokine production by flow cytometric bead array; format: cell-based; details: pulsed 24 hours, 48 hours with OT-1 T cells
Procedure: FIGS. 11A-11B. Splenocytes were pulsed with OVA+an inhibitor peptide and incubated for 24 h. Following incubation, cells were washed, purified OT1 were added to wells and incubated for an additional 48 hrs then analyzed for FIG. 11A) TNFa and IL-6 production; and FIG. 11B) IL-2 and IL-17 production. Error bars indicate +/−SEM (n=4/group; *P<0.05; ** P<0.01).
Whether the different antagonists described by Gorczynski et. al. (J Surg Res 2008; 145(1): 87-96) could modulate or reverse the suppressive effects of the tumor microenvironment was also investigated. It was concluded that different antagonists either act through different CD200R isoforms or have different biological effects on the same receptor. These conclusions were supported by experiments where splenocytes were pulsed with OVA+selected CD200R antagonists (6061, 6069, 4004, 4006, 4013) for 24 hours. The splenocytes were then washed and cultured for 48 hours with the addition of OT-1 T cells. The cultures were then assessed for cytokine production using a flow cytometric bead array. […] These experiments support the hypothesis that exosomes express the CD200 protein thereby inhibiting the ability to prime a T cell response in the draining lymph nodes of glioma bearing mice. Other antagonists were similarly evaluated.

CD200 receptor = experiment: CD11b cells of wild type or CD200 receptor knock out mice pulsed with OVA+Poly:ICLC +/- P1A12, OT-I cells added, IFN gamma; format: cell-based; details: wild type vs CD200 receptor knock out CD11b cells, 48 hour incubation; listed as P1A12
Procedure: FIG. 24. […] CD11b cells isolated for wild type or CD200 receptor knock out mice were pulsed with OVA+Poly:ICLC+/−P1A12 inhibitor. Scrambled inhibitor was use as a control. Cells were washed and OT-I Cells were added. A. Supernatants were analyzed for IFN gamma following 48 hour incubation.
(§2) Mice were vaccinated as described in FIGS. 4A-4C with peptide inhibitor P1A12. Blood from mice vaccinated with tumor lysate+CpG or tumor lysate+CpG+inhibitor were analyzed for MDSC expansion (FIG. 23). […] CD11b cells isolated for wild type or CD200 receptor knock out mice were pulsed with OVA+Poly:ICLC+/−P1A12 inhibitor, and scrambled inhibitor was used as a control (FIG. 24). Cells were washed and OT-I Cells were added. Supernatants were analyzed for IFN gamma following 48 hour incubation.

mice = experiment: MDSC expansion in blood of mice vaccinated with tumor lysate + CpG +/- inhibitor; format: in vivo; details: tumor lysate+CpG+inhibitor vs tumor lysate+CpG, listed as P1A12
Procedure: FIG. 23. […] Mice were vaccinated as described in FIG. 4 with peptide inhibitor P1A12. Blood from mice vaccinated with tumor lysate+CpG or tumor lysate+CpG+inhibitor were analyzed for MDSC expansion.
as §2

| Sequence | Survival (EMT6 tumor bearing mice) | Tumor growth (GL261 tumor bearing mice) | Cytokine profile (TNFa, IL-6, IL-2, IL-17) (splenocytes) | further results |
| --- | --- | --- | --- | --- |
| LFNTFGSQKVSGT [Antagonist 4013] | results translated to a breast carcinoma (EMT6) model; also recorded: enhanced survival benefit; also recorded: significantly extended survival benefit | tumors grow faster in mice vaccinated with saline or tumor lysate alone compared to mice vaccinated with tumor lysate plus an antagonist | – | – |
| RCSLKTSQE [Antagonist 6061] | significantly extended survival benefit | – | – | – |
| SQKVSGTACLTLY [Antagonist 4006] | – | – | different cytokine profiles | – |
| TASLRCSLKTSQE [Antagonist 4004] | results translated to a breast carcinoma (EMT6) model; also recorded: enhanced survival benefit; also recorded: significantly extended survival benefit | tumors grow faster in mice vaccinated with saline or tumor lysate alone compared to mice vaccinated with tumor lysate plus an antagonist | different cytokine profiles | – |
| VTWQKKKAVSPANM [Antagonist C-A12] | – | – | – | Action on the CD200 receptor (IFN gamma in supernatants) (CD200 receptor): acts as an agonist for the CD200 receptor; Survival (GL261 tumor bearing mice): even greater survival; Survival (GL261 tumor bearing mice; listed as P1-A12): enhances survival; MDSC expansion in vivo (mice): inhibits MDSC expansion in vivo |
